Data taken from paper PMC3816687, “Relationships between Cargo, Cell Penetrating Peptidesand Cell Type for Uptake of Non-Covalent Complexes into Live Cells” (Pharmaceuticals, 2013).
Entries after “also recorded” stand apart in the source; their conditions may differ. Like-named read-outs stand apart in the source and are kept apart here. *1 amine or outer side, *2 acyl side, *3 side chain or, on linkers, in order; H or OH if unused. Cysteamide = C(CS[*:3])N[*:1]

How the values were obtained:
[1] = test system: Jurkat cells; test: Internalization of β-galactosidase into Jurkat cells, X-gal staining; type: cell-based, Human; conditions: complexes of β-galactosidase and CPP, ratio 1:10, X-Gal staining
Method: (§1) A detailed description of formation of complexes with peptides and proteins is given in a previous publication. Briefly, cargo proteins (ATTO488-BSA, MW ≈ 68 kDa, β-galactosidase, MW ≈ 540 kDa) and the calculated volume of stock solution of CPPs or JBS-Proteoducin were dissolved separately in 100 µL of 1× PBS). Both solutions were thoroughly mixed by repeated pipetting. The mixture was incubated for 30 minutes at 37 °C to achieve complex formation. The molar ratio of cargo to CPPs was usually calculated to 1:10. For internalization of higher amounts of cargo, both the amount of protein and stock solution of CPP or cocktail, respectively, were multiplied. Complexes of the enzyme β-galactosidase and JBS-Proteoducin were formed from 1 µg β-galactosidase and 1 µL stock solution of JBS-Proteoducin under the described conditions.
The thoroughly washed cell pellet was suspended in 200 µL of complex solution followed by 400 µL of serum free medium, gently mixed and transferred into 24-well plates. […] After addition of 1.4 mL of complete culture medium incubation was continued at 37 °C for approx. 2 h in a humidified atmosphere containing 5% CO2. The cells were washed by spinning down twice with PBS, three times with glycine buffer (pH 3.0) and twice with PBS.
(§2) Staining of the cells took place in multiwell-plates. Jurkat and Leishmania cells were stained according to the instructions described in [24], using a staining solution containing potassium ferrocyanide, potassium ferricyanide and X-gal. Leishmania cells were stained after finishing the above described transduction protocol. For Jurkat cells the staining was performed after transferring cells from spinning tubes used in the last washing step to 24-well plates. Cells were incubated in staining solution overnight and directly observed in a microscope using a 400-fold magnification.

[2] = test system: Leishmania tarentolae; conditions: non-covalent complexes; cited from earlier work
Source text: Formation of non-covalent complexes between cargo and CPP occurs by optimized interaction of the CPP with the surface of the cargo. These complexes are stabilized by ionic, polar, π-electron-cation, or hydrophobic interactions, hydrogen bonds and common interactions between molecules. Thus, for the same cell type different cargoes show different rank orders for CPPs.

[3] = test system: Leishmania tarentolae; test: Internalization of β-galactosidase into Leishmania tarentolae, X-gal staining; type: cell-based; conditions: molar ratios 1:5, 1:10, 1:20 of cargo and CPP
Method: as §1
For transduction cells in an early stage of development were used. To this end stock cultures were diluted 1:10 the day before the experiment into 10 mL of culture medium in 25 cm^2-ventilated tissue culture flasks and were incubated overnight in the dark at 26 °C for optimal proliferation. Cell suspensions with an OD of 1.2 (ca. 4 × 10^7 cells/mL) were used for transduction. The cells were thoroughly washed twice with PBS (5 mL each) by centrifugation (2,000 × g, 3 min). Pellets were resuspended in the original volume of PBS containing 0.1% BSA and aliquoted into 24-well plates. Four hundred µL of cell suspension were used per experiment. Two hundred µL of the complex solutions were added to these cells and mixtures were incubated for 1 h at 26 °C in the dark with gentle agitation. Successively, 1 mL of complete growth medium (LEXSY BHI) was added per sample and incubation was continued at 26 °C for 2 h. Cells were washed twice with PBS (2 mL each) by centrifugation (2,000 × g, 3 min) prior to analysis of transduction.
as §2

[4] = test system: HeLa cells; conditions: non-covalent complexes; cited from earlier work
Method: Table 4 Intracellular amounts and concentrations. Internalized amounts are calculated from fluorescence intensities in the homogenate directly or after separation by SDS-PAGE. In the case of nucleoside triphosphates quantification was performed by fluorescence spectrometry. Estimation of cell volumes allows the calculation of intracellular concentrations. […] The rank order for the uptake of β-galactosidase into HeLa cells: JBS-Proteoducin > MPGα ≥ MPGβ > CAD-2 >> CPPP-2 // HIV-TAT = penetratin provides evidence for different requirements of enzyme and nucleotide for co ...

[5] = test system: HeLa cells; conditions: non-covalent complexes, X-Gal staining; cited from earlier work
Source text: HeLa cells: As shown in our preceding publication, the CPP cocktail JBS-Proteoducin can internalize enzymatic active β-galactosidase into all cell types investigated, including difficult to transfect Kasumi-1 cells. The active enzyme was transported not only into all types of cells but all of the observed cells are also positively stained using the β-galactosidase substrate 5-bromo-4-chloro-indolyl-β-D-galactopyranoside (X-Gal).

[6] = test system: Leishmania tarentolae; test: Cytotoxicity test for Leishmania tarentolae (morphology and motility); type: cell-based
Method: Leishmania cells were cultivated as described previously, resuspended in PBS and treated with increasing concentrations of cocktails and CPPs for 1 h. Cytotoxic effects were monitored by changes in morphology and motility observed using a microscope at 400-fold magnification.

[7] = test system: Leishmania tarentolae; test: Transduction of ATTO488-BSA into Leishmania tarentolae; type: cell-based; conditions: molar ratio 1:10, Leishmania tarentolae, fluorescence plate reader after cell lysis
Method: as §1, with “Complexes of the enzyme β-galactosidase and JBS-Proteoducin were formed from 1 µg β-galactosidase and 1 µL stock solution of JBS-Proteoducin under the described conditions.” left out
For confocal microscopy of fixed and living cells, a LSM 710 laser scanning confocal microscope was used as previously described. […] To avoid bleed-through effects in multi-fluorescence staining experiments, each dye was scanned independently in a multitracking mode. […]
Quantitative fluorescence measurements on internalized fluorescent nucleotide and SDS-PAGE with fluorescent proteins allow the calculation of the internalized amount of cargo. […] The mean volume was calculated to 1.2 × 10^−5 µL. […] Uptake of ATTO488-BSA into Leishmania tarentolae was estimated with a fluorescence plate reader after cell lysis. The volume of Leishmania tarentolae was calculated to 2.0 × 10^−7 µL.

[8] = test system: COS-7 cells; test: Degradation of CPPs by secreted and surface bound proteases of COS-7 cells; conditions: 60 min incubation with 0.3 × 10^6 intact cells per well, PBS, 37 °C, 5% CO2, RP18 HPLC, 220 nm
Method: (§3) In a 6-well-plate with 0.3 × 10^6 cells per well the different cell types were cultivated overnight under optimized conditions. Then medium was removed by aspiration (adherent cell) or centrifugation (suspension cells) and washed cells were incubated with CPPs in phosphate buffer solution (PBS). Incubation was performed under the same conditions as the transduction of complexes with the cargo for 1 h at 37 °C in a humidified atmosphere containing 5% CO2. After 15, 30, 45 and 60 min samples of 200 µL were taken and the proteolytic reaction was stopped by addition of 50 µL 37 perc. HCl. After freezing and lyophilization samples were analyzed by analytical high performance liquid chromatography (HPLC), using a RP18 column (Vydac 218TP). In case of MPGβ, for elution a gradient was used from 10% acetonitrile and 90% water, both containing 0.1% trifluoroacetic acid to 60% acetonitrile and 40% water in 50 min. […] The flow rate was 1.0 ml/min and detection was performed at 220 nm.

[9] = test system: HeLa cells; test: Membrane integrity, CytoTox-Glo assay, HeLa cells; type: cell-based, Human; conditions: low concentrations (9.4 µM), 1 h at 37 °C in serum-free medium, triplicates
Method: (§4) Cells were cultured under standard conditions and treated in serum-free medium for 1 h at 37 °C with different CPPs and the cocktail. After removal of CPPs and repeated washings the membrane integrity of the cells was estimated by the bioluminescence test CytoTox-Glo measuring the release of a cytosolic dead-cell protease. The CytoTox-Glo assay was performed according to the supplier’s instructions and adapted to 96-well plates. Bioluminescence was estimated by a luminescence plate reader. Each value was measured in triplicates with an SD of ± 1.2.

[10] = test system: most of the cells investigated; test: Proteolytic stability of CPPs compared over the cells investigated; type: in vitro ADME; conditions: incubation with intact cells up to 60 min, PBS, 37 °C, HPLC
Method: as §3

[11] = test system: NB-4 cells; test: Degradation of CPPs by proteases of NB-4 cells; type: in vitro ADME, Human; conditions: 60 min incubation with 0.3 × 10^6 intact cells per well, PBS, 37 °C, 5% CO2, RP18 HPLC, 220 nm
Method: as §3

[12] = test system: NB-4 cells; test: Membrane integrity, CytoTox-Glo assay, NB-4 cells; type: cell-based, Human; conditions: low concentrations (9.4 µM), 1 h at 37 °C in serum-free medium, triplicates
Method: as §4

[13] = test system: different cell lines; test: Membrane integrity, CytoTox-Glo assay, different cell lines; type: cell-based; conditions: up to 141 µM, 1 h at 37 °C in serum-free medium, triplicates
Method: as §4

[14] = 1 h in PBS with increasing concentrations, changes in morphology and motility, microscope 400-fold

| Substance | rank order for internalization of β-galactosidase into Jurkat cells [1] | rank order for transport of ATTO488-labeled BSA into Leishmania [2] | rank order for uptake efficiency of β-galactosidase into Leishmania tarentolae [3] | rank order of uptake efficiency of ATTO488-dUTP into HeLa cells [4] | rank order for internalization of β-galactosidase into HeLa cells [5] | Cytotoxicity in Leishmania tarentolae [6] [µM] | Internalized amount, amol per cell ([7]; cargo ATTO488-BSA 1 µg + CPP) | Internalized amount, amol per cell ([7]; cargo ATTO488-BSA 10 µg + CPP) | stability against proteolytic cleavage by COS-7 cells (HPLC peak) [8] | Cytotoxicity in Leishmania tarentolae [6, 14] [µM] | sensitivity of Leishmania tarentolae cells ([6]; concentrations of 10 µM, morphology and motility) | membrane integrity of HeLa cells (release of dead-cell protease) [9] | relative proteolytic stability among the CPPs [10] | stability against proteolytic cleavage by NB-4 cells (HPLC peak) [11] | membrane integrity of NB-4 cells (release of dead-cell protease) [12] | reduction of membrane integrity with increasing concentrations [13] |
| --- | --- | --- | --- | --- | --- | --- | --- | --- | --- | --- | --- | --- | --- | --- | --- | --- |
| Ac-GALFLAFLAAALSLMGLWSQPKKKRKV-NH-CH2-CH2-SH (Ac-GALFLAFLAAALSLMGLWSQPKKKRKV-Cysteamide; SMILES CSCC[C@H](NC(=O)[C@H](CC(C)C)NC(=O)[C@H](CO)NC(=O)[C@H](CC(C)C)NC(=O)[C@H](C)NC(=O)[C@H](C)NC(=O)[C@H](C)NC(=O)[C@H](CC(C)C)NC(=O)[C@H](Cc1ccccc1)NC(=O)[C@H](C)NC(=O)[C@H](CC(C)C)NC(=O)[C@H](Cc1ccccc1)NC(=O)[C@H](CC(C)C)NC(=O)[C@H](C)NC(=O)CNC(C)=O)C(=O)NCC(=O)N[C@@H](CC(C)C)C(=O)N[C@@H](Cc1c[nH]c2ccccc12)C(=O)N[C@@H](CO)C(=O)N[C@@H](CCC(N)=O)C(=O)N1CCC[C@H]1C(=O)N[C@@H](CCCCN)C(=O)N[C@@H](CCCCN)C(=O)N[C@@H](CCCCN)C(=O)N[C@@H](CCCNC(=N)N)C(=O)N[C@@H](CCCCN)C(=O)N[C@H](C(=O)NCCS)C(C)C) [MPGα, MPG cell penetrating peptide, 5 positive charges] | JBS-Proteoducin > MPGβ > MPGα > CAD-2 >> CPPP-2 | MPGα >> CAD-2 > histone | CAD-2 > MPGα > Histone > MPGβ >> penetratin ≥ HIV-TAT ≥ CPPP-2 | JBS-Nucleoducin > CAD-2 > MPGα ≥ MPGβ > penetratin >> CPP-2 | JBS-Proteoducin > MPGα ≥ MPGβ > CAD-2 >> CPPP-2 // HIV-TAT, penetratin | ≤ 5 | 0.8 x 10^−2 amol per cell | 3.3 x 10^−2 amol per cell | – | – | – | – | – | – | – | – |
| Ac-GALFLGFLGAAGSTMGAWSQPKKKRKV-NH-CH2-CH2-SH [MPGβ, MPG cell penetrating peptide, 5 positive charges] | JBS-Proteoducin > MPGβ > MPGα > CAD-2 >> CPPP-2 | – | CAD-2 > MPGα > Histone > MPGβ >> penetratin ≥ HIV-TAT ≥ CPPP-2 | JBS-Nucleoducin > CAD-2 > MPGα ≥ MPGβ > penetratin >> CPP-2 | JBS-Proteoducin > MPGα ≥ MPGβ > CAD-2 >> CPPP-2 // HIV-TAT, penetratin | – | – | – | strongly reduced | ≤ 5 | very sensitive | – | – | – | – | – |
| GLWRALWRLLRSLWRLLWKA-NH-CH2-CH2-SH [CAD-2, des-acetyl, Lys^19-CADY, cell penetrating peptide, 6 positive charges] | JBS-Proteoducin > MPGβ > MPGα > CAD-2 >> CPPP-2 | MPGα >> CAD-2 > histone | CAD-2 > MPGα > Histone > MPGβ >> penetratin ≥ HIV-TAT ≥ CPPP-2 | JBS-Nucleoducin > CAD-2 > MPGα ≥ MPGβ > penetratin >> CPP-2 | JBS-Proteoducin > MPGα ≥ MPGβ > CAD-2 >> CPPP-2 // HIV-TAT, penetratin | ≤ 25 | – | – | remains stable | – | – | sensitive | nearly unaffected; also recorded: most stable | remains stable | sensitive | very low |
| KLPVM [CPPP-2, cell penetrating pentapeptide, 2 positive charges] | JBS-Proteoducin > MPGβ > MPGα > CAD-2 >> CPPP-2 | – | CAD-2 > MPGα > Histone > MPGβ >> penetratin ≥ HIV-TAT ≥ CPPP-2 | JBS-Nucleoducin > CAD-2 > MPGα ≥ MPGβ > penetratin >> CPP-2 | JBS-Proteoducin > MPGα ≥ MPGβ > CAD-2 >> CPPP-2 // HIV-TAT, penetratin | – | – | – | – | ≥ 100 | – | – | – | – | – | – |
| YGRKKRRQRRR-amide [HIV-TAT (47-57), amphiphilic-cationic cell penetrating peptide, 9 positive charges] | – | – | CAD-2 > MPGα > Histone > MPGβ >> penetratin ≥ HIV-TAT ≥ CPPP-2 | not able to transport | JBS-Proteoducin > MPGα ≥ MPGβ > CAD-2 >> CPPP-2 // HIV-TAT, penetratin | – | – | – | – | ≥ 30 | – | – | – | – | – | – |
